The test system of one assay is CHO-K1 cell line. Put plainly: Fed-batch spiking test: IgG glycan profile by HPLC with Glycan Column. It counts as cell-based, Chinese hamster. As for the experimental part: Industrial standard Fed-batch process: CHO-K1 cell line is cultured in corresponding media. Feed for 14 days, with 6 mM glutamine supplement on the inoculation day. The working volume is 30 mL in 125 mL shake flasks, and the inoculation cell density is 0.5 million cells/mL. The parameters for the shaking incubator are: 125 RPM, and 5% CO2. The feeding strategy is 10% corresponding feed everyday starting from day 3 to day 13.
In the standard industrial fed-batch process, cells were exposed to the inhibitors for a long period of time. This experiment mimics the therapeutic antibody production process, and spikes the inhibitors at their end-of-culture cellular concentration. ICA was confirmed as a known inhibitor and was used as a positive inhibitor control. Mixture condition excluded ICA and included AA, HICA, CMP, MSA, TRI, NAP. The process lasted for 14 days, and starting from day 6, the cell density under the inhibitor conditions were lower than the negative control batch.
IgG titer was measured by HPLC with a Protein A column. Product quality was quantified by the IgG glycan profile, which was measured by HPLC with a Glycan Column.

The test system of a further assay is CHO cells. Description: Batch culture spiking of metabolites at end-of-culture concentration: cell density. As to conditions: 6 days, spiked at end-of-culture concentration. The format is cell-based, Chinese hamster. As for the experimental part: CHO K-1 industrial standard batch process: NIH CHO-K1 cell line is cultured for 6 days, with 6 mM glutamine supplement on the inoculation day. The working volume is 30 mL in 125 mL shake flasks, and the inoculation cell density is 0.5 million cells/mL. The parameters for the shaking incubator are: 125 RPM, and 5% CO2.
Cells were exposed to the identified inhibitory metabolites of Table 1 at their end-of-culture concentration for 6 days in batch culture. […] All of the inhibitory metabolites decreased the antibody productivity (FIG. 4).

SMILES strings stand for the structures. “Also recorded” adds a separate entry of the source.

Consider `O=C(O)C=C(CC(=O)O)C(=O)O` [AA, aconitic acid], for which the “Impact on G1F formation compared to control group” value in the assay on CHO-K1 cell line is reported as “higher impact”. Also, the “Impact on G2F formation compared to control group” value with CHO-K1 cell line (Day 14) is “totally inhibits; also recorded: G2F was not formed”. In the assay with CHO cells, the “Cell density compared with the control group” value is given as “lower cell density”. With `CC(CC(=O)O)C(=O)O` (stereo not drawn) [MSA, methylsuccinic acid], in the assay on CHO-K1 cell line, the “Impact on G1F formation compared to control group” value is on record as “higher impact”.

Turning to `CC(C)CC(O)C(=O)O` (stereo not drawn) [HICA, leucinic acid], the “Impact on G1F formation compared to control group” value in the assay with CHO-K1 cell line is given as “higher impact”. Consider `O=C(O)c1c[nH]c2ccccc12` [ICA, indole-3-carboxylic acid, reference compound], for which the “Impact on G1F formation compared to control group” value with CHO-K1 cell line is given as “higher impact”. Further, the “Cell density compared with the control group” value in the assay with CHO cells is listed as “lower cell density”. With `Nc1ccn([C@@H]2O[C@H](COP(=O)(O)O)[C@@H](O)[C@H]2O)c(=O)n1` [CMP, cytidine monophosphate], the “Impact on G1F formation compared to control group” value in the assay on CHO-K1 cell line was “higher impact”. Also, in the assay with CHO cells, the “Cell density compared with the control group” value is reported as “lower cell density”.

Source of the values: US20220325235A1, “CELL CULTURE METHODS” (The University of Massachusetts, priority 2019, published 2022).
